{"source": "patent US9862746B2", "about": "“Compositions and methods relating to hindering DOT1L recruitment by MLL-fusion proteins” (The Regents of the University of Michigan, priority 2013, dated 2018)", "key": {"[1]": {"target": "T1, ENL (Homo sapiens, UniProt Q03111)", "T1 construct": "against AF9(497-568) and ENL (489-559) proteins running different tested concentrations over CM5 chip; MBP (pMSCG9-LIC vector); made in house; host or cells: Escherichia coli BL21 (DE3)", "T1 sequence (Q03111 489-559)": "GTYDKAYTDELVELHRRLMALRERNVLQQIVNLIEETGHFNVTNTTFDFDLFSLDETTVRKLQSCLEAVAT", "assay": "SPR competitive binding assay of small molecules, ENL", "conditions": "SPR competitive based assay; read-out: ENL IC50 ± SD", "from_the_text": "(§1) To further validate the binding of the confirmed compounds and identify potential promiscuous inhibitors, several secondary assays have been developed to support hit confirmation and the hit-to-probe optimization process. In order to determine that the compounds bind effectively to the target and disrupt protein-protein interaction, a SPR competitive binding assay was used. This assay uses a platform that differs from the FP-based assay where DOT1L recombinant protein (residues […]) is immobilized on a CM5 chip, allowing for testing of the inhibitors for their ability to disrupt AF9-DOT1L protein-protein interactions.\nThis class of compounds was also tested for their binding against ENL protein, which is highly homologous with AF9."}, "[2]": {"target": "T2, AF9 (Homo sapiens, UniProt P42568)", "T2 sequence (P42568 1-568)": "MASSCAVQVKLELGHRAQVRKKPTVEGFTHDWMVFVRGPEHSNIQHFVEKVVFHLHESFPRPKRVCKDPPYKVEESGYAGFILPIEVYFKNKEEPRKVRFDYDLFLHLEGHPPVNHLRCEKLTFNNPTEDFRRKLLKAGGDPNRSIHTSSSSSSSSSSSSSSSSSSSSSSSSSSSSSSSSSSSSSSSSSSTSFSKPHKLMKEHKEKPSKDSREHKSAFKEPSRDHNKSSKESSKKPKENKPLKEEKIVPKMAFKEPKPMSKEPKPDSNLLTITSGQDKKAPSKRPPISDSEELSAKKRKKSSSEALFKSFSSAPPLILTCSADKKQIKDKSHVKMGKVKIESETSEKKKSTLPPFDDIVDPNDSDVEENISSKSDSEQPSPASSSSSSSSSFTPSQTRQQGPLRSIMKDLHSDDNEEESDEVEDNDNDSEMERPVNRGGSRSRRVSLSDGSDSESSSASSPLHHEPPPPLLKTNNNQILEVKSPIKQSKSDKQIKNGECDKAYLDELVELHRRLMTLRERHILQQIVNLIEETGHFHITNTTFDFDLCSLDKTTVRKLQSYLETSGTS", "assay": "Saturation Transfer Difference (STD) NMR", "type": "binding", "description": "(§2) C) Globally fitted concentration series of 38 (100, 50, 25, 12.5 and 6.25 μM) binding to immobilized AF9 using OctetRed System (see Example 12).\n(§3) To provide further validation of the hit selection in addition to the biochemical assays Saturation Transfer Difference (STD), NMR spectroscopy was used. NMR spectroscopy has been successfully utilized to detect and characterize the direct binding of small-molecule compounds to large biomolecules. This technique is also allowing characterization of the binding interactions and maps the ligand-protein contacts in the bound state, delineating which chemical moieties of the ligand molecule are key for molecular recognition by the protein (group epitope mapping, FIG. 20A). […] The direct binding of 38 was also confirmed with ThermoFluor biophysical binding assay. ThermoFluor exploits a well-known biophysical phenomenon where small changes in the intrinsic melting temperature of proteins in the presence of ligands are related to the equilibrium-binding constant. Compounds that interact with the native form of the protein will shift the equilibrium to the left, increasing the Tm, the temperature at which half the protein is unfolded. In the presence of compound 38, the Tm of MBP-AF9 protein increases in a dose-dependent manner, giving ΔTm of 1.2 degree in […] (FIG. 20B)."}, "[3]": {"target": "T3, MBP-AF9 (Homo sapiens, UniProt P42568)", "T3 sequence (P42568 497-568)": "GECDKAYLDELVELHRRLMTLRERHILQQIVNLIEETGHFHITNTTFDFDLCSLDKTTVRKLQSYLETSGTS", "assay": "ThermoFluor binding assay, MBP-AF9", "description": "as §2, §3"}, "[4]": {"target": "MBP tag (Escherichia coli, UniProt P0AEX9)", "assay": "ThermoFluor binding assay, MBP tag only"}, "[5]": {"target": "T2, AF9", "assay": "OctetRed Bio-Layer Interferometry binding to immobilized AF9", "conditions": "OctetRed BLI", "description": "as §2\nFinally, an orthogonal measure of the disruption of the DOT1L/AF9 protein interaction was obtained using OctetRed system with Bio-Layer Interferometry (BLI) technology. This technology is allowing label-free, real-time biomolecular analysis and determination of binding kinetics and affinity. […] Using global fitting of the binding data in several tested concentrations, the kinetic parameters were calculated. The observed KD values ranged from 10 μM to 50 μM, consistent with the KD from steady state calculations."}, "[6]": {"tested_on": "MLL-AF9 transformed mouse cells", "assay": "Cell growth of MLL-AF9 transformed mouse cells", "type": "cell-based", "conditions": "216 h", "from_the_text": "(§4) FIG. 23 presents cell growth curves of A) MLL-AF9 and B) Hoxa9/Meis1 transformed mouse cells and C) adult LSKs after treatment with 38. D) H3K79 methylation after 6 days treatment with 38 and EPZ004777 DOT1L inhibitor (see, e.g., Daigle, et al., Cancer Cell 20, 53-65 (2011)).\n(§5) This example involves the assessment of cellular effects of compound 38. […] Compound 38 inhibited growth of MLL-AF9 cells in a dose-dependent manner (FIG. 23A), with cell growth inhibition starting after 4 days of treatment. […] The hypothesis predicts that compounds that can block the DOT1L recruitment, but not its catalytic activity, will not affect normal hematopoiesis, as well as the global level of H3K79 methylation. To test this hypothesis, the toxicity of compound 38 was tested on purified LSK (lin-sca-1+ckit+) progenitors from adult wild type mice (FIG. 23C)."}, "[7]": {"tested_on": "HM2 cells stably expressing Hoxa9 and Meis 1", "assay": "Cell growth of HM2 (Hoxa9/Meis1) cells", "type": "cell-based, mouse", "from_the_text": "as §4, §5"}, "[8]": {"tested_on": "LSK (lin-sca-1+ckit+) progenitors", "assay": "Toxicity on purified adult LSK progenitors", "type": "cell-based, mouse", "conditions": "50 μM and 25 μM, up to seven days in culture", "from_the_text": "as §4, §5"}, "[9]": {"tested_on": "H3K79 methylation", "assay": "Global H3K79 methylation in MLL-AF9 transformed cells", "type": "cell-based, mouse", "conditions": "6 days treatment of MLL-AF9 transformed cells", "from_the_text": "as §4, §5"}, "[10]": {"target": "T4, AF9 (Homo sapiens, UniProt P42568)", "T4 sequence (P42568 497-568)": "T3 sequence (P42568 497-568)", "assay": "SPR competitive binding assay of small molecules, AF9-DOT1L", "parameters": "against AF9(497-568) and ENL (489-559) proteins running different tested concentrations over CM5 chip; GB1 (pGB1-LIC vector); made in house; host or cells: Escherichia coli BL21 (DE3)", "conditions": "SPR competitive based assay; read-out: AF9 IC50 ± SD", "from_the_text": "Several secondary assays have already been developed to support hit confirmation and the hit-to-probe optimization process. The established and optimized SPR-based competitive assay utilizing DOT1L protein (826-1095) immobilized on the CM5 sensor chip was used as a secondary counter screen assay to validate binding of compounds to AF9. […] Both assays gave similar IC50 values.\nas §1"}}, "note": "Like-named read-outs stand apart in the source and are kept apart here."}
{"smiles": "CCc1ccc(S(=O)(=O)N2c3ccccc3NC3=C(C(=O)CCC3)C2c2ccco2)cc1", "note": "(racemic) [Compound 38]", "values": [{"measurement": "IC50", "setting": "[1]", "value": "30.7 ± 7.7", "unit": "µM"}, {"measurement": "STD effects (direct binding to AF9)", "setting": "[2]", "value": "strong STD effects"}, {"measurement": "ΔTm of MBP-AF9 protein", "setting": "[3]", "value": 1.2, "unit": "degree"}, {"measurement": "thermal stability of tag MBP only", "setting": "[4]", "value": "did not show any changes in thermal stability"}, {"measurement": "Kd", "setting": "[5]; several tested concentrations, read-out: KD values, global fitting of binding data", "value": "10 to 50", "unit": "µM"}, {"measurement": "Kd", "setting": "[5]; read-out: binding affinity (KD), steady state analysis", "value": 35, "unit": "µM"}, {"measurement": "inhibition at 25 µM", "setting": "[6]; day 9, 25 μM", "value": 50, "unit": "%"}, {"measurement": "inhibition at 50 µM", "setting": "[6]; day 9, 50 μM", "value": "~90", "unit": "%"}, {"measurement": "cell growth of HM2 cells", "setting": "[7]", "value": "not affected"}, {"measurement": "toxicity / growth inhibition of adult LSKs", "setting": "[8]", "value": "not toxic to normal hematopoiesis"}, {"measurement": "global H3K79 methylation level", "setting": "[9]", "value": "not affected"}, {"measurement": "IC50", "setting": "[10]", "value": "40 ± 1.5", "unit": "µM"}]}
